The values that follow come from patent US5698522A, “6-position modified decapeptide LHRH antagonists” (Abbott Laboratories, priority 1995, dated 1997).

Molecules are shown by their SMILES. Where a SMILES comes first, the peptide text is derived from it. Side-chain parts run from the residue outwards. [ ]: non-standard residue; d: D form. The star is where a group is joined. Shikimoyl = O=C(C1=C[C@@H](O)[C@@H](O)[C@H](O)C1)*; dPhe(4-Cl) = N[C@H](Cc1ccc(Cl)cc1)C(=O)O; d2Nal = N[C@H](Cc1ccc2ccccc2c1)C(=O)O; Lys(iPr) = CC(C)NCCCC[C@H](N)C(=O)O; NMeY = CN[C@@H](Cc1ccc(O)cc1)C(=O)O; Thiophene2carbonyl = O=C(c1cccs1)*; d3Pal = N[C@H](Cc1cccnc1)C(=O)O; Nicotinoyl = O=C(c1cccnc1)*; dOrn = NCCC[C@@H](N)C(=O)O; 2Furoyl = O=C(c1ccco1)*; azaGly = NNC(=O)O

The test deals with T1, LHRH receptor (Rattus norvegicus, UniProt P30969).
T1 construct: endogenous in cells
T1 sequence (P30969 1-327): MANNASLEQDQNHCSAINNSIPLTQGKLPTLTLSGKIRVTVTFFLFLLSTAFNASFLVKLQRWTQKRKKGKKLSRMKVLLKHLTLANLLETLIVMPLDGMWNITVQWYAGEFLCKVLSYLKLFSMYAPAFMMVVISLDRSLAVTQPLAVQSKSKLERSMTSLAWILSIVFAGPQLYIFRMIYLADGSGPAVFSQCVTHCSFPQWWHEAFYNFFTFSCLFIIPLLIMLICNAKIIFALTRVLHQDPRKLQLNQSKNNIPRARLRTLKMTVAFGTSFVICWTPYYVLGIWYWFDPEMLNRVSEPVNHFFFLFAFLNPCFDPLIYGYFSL
Briefly: in vitro LHRH antagonist potency (pA2) against the agonist leuprolide. It is filed as cell-based. Particulars: negative logarithm of the antagonist concentration which shifts the response curve produced by the agonist leuprolide to two-fold higher concentration. The protocol:
Representative compounds of the present invention were evaluated in in vitro tests for receptor binding (pKI) and for LHRH antagonist potency (pA2). The tests employed the methods detailed in F. Haviv, et al., J. Med. Chem., 32: 2340-2344 (1989). The receptor binding affinities (pKI) are the negative logarithms of the equilibtirum dissociation constants (pA2) are the negative logarithms of the concentration of antagonist which shift the response curve roduced by the agonist leuprolide to two-fold higher concentration. (Leuprolide is the LHRH agonist having the structure 5-oxo-Pro^1 -His^2 -Trp^3 -Ser^4 -Tyr^5 -D-Leu^6 -Leu^7 -Arg^8 -Pro^9 -NHEt and is disclosed and claimed in U.S. Pat. No. 4,005,063.) Typically pA2 values of 9.5 or greater are indicative of good LHRH antagonist potency.
Consider `CC(=O)N[C@H](Cc1ccc2ccccc2c1)C(=O)N[C@H](Cc1ccc(Cl)cc1)C(=O)N[C@H](Cc1cccnc1)C(=O)N[C@@H](CO)C(=O)N(C)[C@@H](Cc1ccc(O)cc1)C(=O)N[C@H](CCCCNC(=O)NNC(=O)c1cccnc1)C(=O)N[C@@H](CC(C)C)C(=O)N[C@@H](CCCNC(=N)N)C(=O)N1CCC[C@H]1C(=O)N[C@H](C)C(N)=O` [Example 37b, NAc-D2Nal^1 -D4ClPhe^2 -D3Pal^3 -Ser^4 -NMeTyr^5 -DLys(N-epsilon-Azagly-Nicotinyl)^6 -Leu^7 -Arg^8 -Pro^9 -DAla^10 NH2] (Ac-[d2Nal][dPhe(4-Cl)][d3Pal]S[NMeY][dK]([azaGly-Nicotinoyl])LRP[dA]-NH2), for which the Kb is 5.62 pM. The same measure for `CC(=O)N[C@H](Cc1ccc2ccccc2c1)C(=O)N[C@H](Cc1ccc(Cl)cc1)C(=O)N[C@H](Cc1cccnc1)C(=O)N[C@@H](CO)C(=O)N(C)[C@@H](Cc1ccc(O)cc1)C(=O)N[C@H](CCCCNC(=O)[C@@H](Cc1c[nH]cn1)NC(=O)C1=C[C@@H](O)[C@@H](O)[C@H](O)C1)C(=O)N[C@@H](CC(C)C)C(=O)N[C@@H](CCCNC(=N)N)C(=O)N1CCC[C@H]1C(=O)N[C@H](C)C(N)=O` [Example 38e, NAc-D2Nal^1 -D4ClPhe^2 -D3Pal^3 -Ser^4 -NMeTyr^5 -DLys(N-epsilon-DHis-Shikimyl)^6 -Leu^7 -Arg^8 -Pro^9 -DAla^10 NH2] (Ac-[d2Nal][dPhe(4-Cl)][d3Pal]S[NMeY][dK]([dH-Shikimoyl])LRP[dA]-NH2): 43.7 pM. `CC(=O)N[C@H](Cc1ccc2ccccc2c1)C(=O)N[C@H](Cc1ccc(Cl)cc1)C(=O)N[C@H](Cc1cccnc1)C(=O)N[C@@H](CO)C(=O)N(C)[C@@H](Cc1ccc(O)cc1)C(=O)N[C@H](CCCCNC(=O)NNC(=O)c1ccco1)C(=O)N[C@@H](CC(C)C)C(=O)N[C@@H](CCCNC(=N)N)C(=O)N1CCC[C@H]1C(=O)N[C@H](C)C(N)=O` [Example 37a, NAc-D2Nal^1 -D4ClPhe^2 -D3Pal^3 -Ser^4 -NMeTyr^5 -DLys(N-epsilon-Azagly-2-Furoyl)^6 -Leu^7 -Arg^8 -Pro^9 -DAla^10 NH2] (Ac-[d2Nal][dPhe(4-Cl)][d3Pal]S[NMeY][dK]([azaGly-2Furoyl])LRP[dA]-NH2): the Kb was 16.6 pM. The same measure for `CC(=O)N[C@H](Cc1ccc2ccccc2c1)C(=O)N[C@H](Cc1ccc(Cl)cc1)C(=O)N[C@H](Cc1cccnc1)C(=O)N[C@@H](CO)C(=O)N(C)[C@@H](Cc1ccc(O)cc1)C(=O)N[C@H](CCCNC(=O)[C@@H](CO)NC(=O)c1cccnc1)C(=O)N[C@@H](CC(C)C)C(=O)N[C@@H](CCCNC(=N)N)C(=O)N1CCC[C@H]1C(=O)N[C@H](C)C(N)=O` [Example 49b, NAc-D2Nal^1 -D4ClPhe^2 -D3Pal^3 -Ser^4 -NMeTyr^5 -DOrn(N-epsilon-DSer-Nicotinyl)^6 -Leu^7 -Arg^8 -Pro^9 -DAla^10 NH2] (Ac-[d2Nal][dPhe(4-Cl)][d3Pal]S[NMeY][dOrn]([dS-Nicotinoyl])LRP[dA]-NH2): 15.5 pM. As to `CC(=O)N[C@H](Cc1ccc2ccccc2c1)C(=O)N[C@H](Cc1ccc(Cl)cc1)C(=O)N[C@H](Cc1cccnc1)C(=O)N[C@@H](CO)C(=O)N(C)[C@@H](Cc1ccc(O)cc1)C(=O)N[C@H](CCCCNC(=O)NNC(=O)c1cccs1)C(=O)N[C@@H](CC(C)C)C(=O)N[C@@H](CCCCNC(C)C)C(=O)N1CCC[C@H]1C(=O)N[C@H](C)C(N)=O` [Example 5b, NAc-D2Nal^1 -D4ClPhe^2 -D3Pal^3 -Ser^4 -NMeTyr^5 -DLys(N-epsilon-Azagly-2-Thienylcarbonyl)^6 -Leu^7 -Lys(N-epsilon-Isopropyl)^8 -Pro^9 -DAla^10 NH2] (Ac-[d2Nal][dPhe(4-Cl)][d3Pal]S[NMeY][dK]([azaGly-Thiophene2carbonyl])L[Lys(iPr)]P[dA]-NH2), the Kb was 2.95 pM.
